Source: patent US20260209243A1, “A BIOORTHOGONAL CYCLOADDITION REACTION AND USE THEREOF” (NANJING UNIVERSITY, priority 2022, published 2026)

Key:
[1] = biological target: T1, BSA-FuA (Bos taurus, UniProt P02769); test: In-gel fluorescence assay of DFC reaction on BSA-FuA; format: biochemical, bovine; conditions: incubated in PBS; PDO type cycloadduct confirmed by LC-MS/MS
T1 construct: purchased Sangon Biotech (Shanghai, China)
Method: (§1) DFC reaction in PBS and on proteins. (A) The DFC reaction of oD1 with FuA in pH 7.4 PBS buffer; (B) Time-dependent labelling of 2 mg/mL BSA-FuA with 100 nM oD1-TAMRA for time indicated. Fluorescence signals were acquired using Cy3 channel. Coomassie staining was used to assess BSA loading; (C) Schematic illustration on the single-site modification of the protein oD1 (C156)-SNAP-GFP through the DFC reaction. SNAP-GFP (2 mg/mL) in PBS (pH=7.4) was mixed with 1.5 equivalents of BG-PEG4-oD1 and was incubated at room temperature for 20 min to give oD1 (C156)-SNAP-GFP.
DFC-based BSA protein labelling and characterization. […]
A solution of BSA (2 mg/mL) in PBS (pH=7.4) was mixed with 200 equivalents of FuA NHS ester and was shaken (900 rpm) at room temperature for 4 h. […] The concentration of BSA-FuA was quantified with BCA protein assay kit (Pierce).
For concentration-dependent reaction, BSA-FuA (2 mg/mL) was incubated with various concentrations of oD1-TAMRA (0-1000 nM) in PBS at room temperature for 30 min. […] Protein samples (20 μg) were further analyzed by gel electrophoresis using 12% polyacrylamide gels and imaged with Bio-Rad Chemdoc imaging system using corresponding filters. Protein loading was assessed by staining with Coomassie Blue according to manufacturer's instructions.

[2] = Kinetics studies: cycloaddition of o-diones with α-AL; conditions: aqueous solution, pH ranging from 5 to 9
Method: The cycloaddition kinetics of α-AL with different o-diones in pH 7.4 PBS buffer or in aqueous solution with indicated pH.
(§2) Measurement of second order rate constants of (A) reactions of o-dione (25 μM) with furan-2(3H)-one (250 μM) in 1×PBS (pH=7.4) and (B) reactions of oD1 (25 μM) with α-AL (250 μM) in different pH buffer. (When pH=5, 6; oD1 is 250 μM and α-AL is 2.5 mM) by plotting ln[1/(1−x)] versus time of o-dione with furan-2(3H)-one reaction (x represents the percent conversion of o-dione).
All kinetics experiments were carried out at room temperature in 1×PBS (pH=7.4). Second order kinetics were performed by combining o-dione and furan-2(3H)-one in a 1:10 ratio, and the concentration of o-dione is 25/250 μM. Pseudo-first order rate constant kobs was determined by plotting ln[1/(1−x)] versus time and analysis by linear regression. x represents the percent conversion of o-dione. The slope of the linear equation is kobs. The second rate constant k2 was calculated by kobs/[furan-2(3H)-one]. The reported errors for rate constants are based on the standard deviation of the mean for experiments performed in triplicate.

[3] = test system: live cells; conditions: stated as known; cited from earlier work
[4] = Kinetics studies: DFC reaction of FuA with oD1 in PBS; conditions: pH 7.4 PBS buffer
Method: as §1, §2
All kinetics experiments were carried out at room temperature in 1×PBS (pH=7.4). […] Pseudo-first order rate constant kobs was determined by plotting ln[1/(1−x)] versus time and analysis by linear regression. x represents the percent conversion of o-dione. […] The second rate constant k2 was calculated by kobs/[furan-2(3H)-one]. […]

[5] = test system: SKOV3 cells; test: MTT assay; format: cell-based; conditions: 0-200 μM, 24 h
Method: Relative cell viability of SKOV3 cells after incubation with FuA or PDO6. SKOV3 cells were incubated with 0-200 μM FuA or PDO6 for 24 h. MTT was used to assess the cell viability. Data are shown as mean±SEM (n=3).
SKOV3 cells were seeded in 96-well plates with a concentration of 10,000 cells per well. After 12 h, FuA or PDO6 was added with final concentrations of 0, 40, 80, 120, 160, 200 μM. Then, SKOV3 cells were further cultured for 24 h. MTT assay was then carried out. For each well, 20 μL MTT solution (final concentration, 1 mg/mL) was added and 150 μL DMSO was added after 4 h′ incubation. The absorbance at 490 nm was then measured to indicate the cell viability.

T1 sequence (P02769 25-607): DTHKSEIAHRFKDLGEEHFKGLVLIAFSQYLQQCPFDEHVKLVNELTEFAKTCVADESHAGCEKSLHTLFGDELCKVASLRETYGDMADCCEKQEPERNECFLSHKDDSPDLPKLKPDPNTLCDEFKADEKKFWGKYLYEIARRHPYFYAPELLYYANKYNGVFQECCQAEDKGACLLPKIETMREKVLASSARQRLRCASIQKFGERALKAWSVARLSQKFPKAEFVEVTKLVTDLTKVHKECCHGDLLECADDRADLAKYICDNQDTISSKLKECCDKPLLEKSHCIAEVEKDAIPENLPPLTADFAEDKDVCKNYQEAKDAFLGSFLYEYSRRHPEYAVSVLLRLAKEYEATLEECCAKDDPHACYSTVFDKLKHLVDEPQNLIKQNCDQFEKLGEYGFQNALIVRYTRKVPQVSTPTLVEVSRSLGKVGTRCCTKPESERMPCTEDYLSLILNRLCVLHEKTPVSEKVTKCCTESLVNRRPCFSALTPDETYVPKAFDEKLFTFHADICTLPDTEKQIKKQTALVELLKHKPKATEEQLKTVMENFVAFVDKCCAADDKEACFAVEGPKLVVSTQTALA

For `O=C1C(=O)c2ccccc2-c2ccccc21` [PQ, phenanthrene-9,10-dione], which “fluorescence of BSA-FuA after incubation” value [1] is on record?
Its value is “fluorescence turn-on”.

For `O=C(O)c1ccc2c(c1)-c1ccccc1C(=O)C2=O` [oD1], which “pH dependence of reaction kinetics with α-AL” value [2] is on record?
Its value is “increase of pH under which α-AL is stable enough apparently accelerates the cycloaddition reaction”.

And the “compatibility with live cells” value [3]?
Its value is “compatible with live cells”.

Which “second-order constant of DFC reaction of oD1 with FuA” value [4] does the source give for `O=C(O)CCCC1=CCC(=O)O1` [FuA, 4-(5-oxo-4,5-dihydrofuran-2-yl)butanoic acid] here?
Its value is “about 4 M^−1 s^−1”.

And the “cytotoxicity / compatibility with live cells (MTT)” value [5]?
The value was “good compatibility with live cells”.
